Measurements: paper PMC4608580, “Synthesis and Evaluation of Biological Activity of Antimicrobial – Pro-Proliferative Peptide Conjugates” (PLoS ONE, 2015)
Values after ≈ are worked out from the molar mass of the structure shown. Residues, ends and D or L forms follow the SMILES beside them.

What was measured:
B. cereus = assay type: cell-based; conditions: broth microdilution, Mueller-Hinton broth, approximately 10^5 CFU/mL, 37°C, 24 h, absorbance 590 nm, at least triplicate
Description: (§1) Luria-Bertani broth (LB) and Sabouraud Dextrose broth (SB) (Biocorp, Poland) were used for cultivation of bacteria and fungi strains, respectively. Antimicrobial activity of peptides was analyzed through determination of MIC (minimal inhibitory concentration) parameter according to the standard microdilution technique performed on 96-well plates. Mueller-Hinton broth (MHB) was used as the working medium for all bacterial strains, while in case of fungi it was additionally supplemented with 2% glucose.
(§2) Briefly, inoculum was prepared from freshly grown cultures of microorganisms being at their exponential phase of growth. Each well of 96-well plates containing 100 μL of serially diluted peptides in PBS (phosphate buffer saline) at concentration ranging from 2 to 250 μg/mL were inoculated with 100 μL of approximately 10^5 CFU/mL of bacterial suspension or about 2.5 x 10^3 CFU/mL of fungi suspended in a double concentrated Mueller-Hinton broth (supplemented with 2% glucose for Candida spps.). Then plates were incubated overnight at 37°C and absorbance was read at 590 nm after 24 h. Cultures without peptide were treated as positive control, while uninoculated Mueller-Hinton broth was defined as negative control. All measurements were run at least in triplicate.
(§3) All peptides were screened against the wide range of microorganisms, including Gram-negative, Gram-positive bacteria and fungi from Candida species (Table 2). Broth microdilution method for MIC determination was used as a standard procedure. All assays were performed on liquid Mueller-Hinton broth, which was additionally supplemented with 2% glucose when fungicidal activity towards Candida spps. was analyzed.

B. subtilis = assay type: cell-based; conditions: broth microdilution, Mueller-Hinton broth, approximately 10^5 CFU/mL, 37°C, 24 h, absorbance 590 nm, at least triplicate
Description: as §1, §2, §3

[1] = tested on: Candida albicans (CCM 8186); assay type: cell-based; conditions: broth microdilution, Mueller-Hinton broth + 2% glucose, about 2.5 x 10^3 CFU/mL, 37°C, 24 h, absorbance 590 nm, peptide 2 to 250 μg/mL, at least triplicate
Description: (§4) Escherichia coli (PCM 2057), Staphylococcus aureus (PCM 2054), Staphylococcus epidermidis (PCM 2118), Pseudomonas aeruginosa (PCM 499) were obtained from Polish Collection of Microorganisms. Fungi strains Candida albicans (CCM 8186), Candida glabrata (CCM 8270), Candida parapsilosis (CCM 8260), Candida krusei (CCM 8271), Candida tropicalis (CCM 8264) were acquired from Czech Collection of Microorganisms.
as §1, §2, §3

[2] = tested on: Candida glabrata (CCM 8270); assay type: cell-based; conditions: broth microdilution, Mueller-Hinton broth + 2% glucose, about 2.5 x 10^3 CFU/mL, 37°C, 24 h, absorbance 590 nm, at least triplicate
Description: as §4, §1, §2, §3

[3] = tested on: Candida krusei (CCM 8271); assay type: cell-based; conditions: broth microdilution, Mueller-Hinton broth + 2% glucose, about 2.5 x 10^3 CFU/mL, 37°C, 24 h, absorbance 590 nm, at least triplicate
Description: as §4, §1, §2, §3

[4] = tested on: Candida parapsilosis (CCM 8260); assay type: cell-based; conditions: broth microdilution, Mueller-Hinton broth + 2% glucose, about 2.5 x 10^3 CFU/mL, 37°C, 24 h, absorbance 590 nm, at least triplicate
Description: as §4, §1, §2, §3

[5] = tested on: Candida tropicalis (CCM 8264); assay type: cell-based; conditions: broth microdilution, Mueller-Hinton broth + 2% glucose, about 2.5 x 10^3 CFU/mL, 37°C, 24 h, absorbance 590 nm, at least triplicate
Description: as §4, §1, §2, §3

[6] = tested on: Escherichia coli (PCM 2057); assay type: cell-based; conditions: broth microdilution, Mueller-Hinton broth, approximately 10^5 CFU/mL, 37°C, 24 h, absorbance 590 nm, at least triplicate
Description: as §4, §1, §2, §3

[7] = tested on: Pseudomonas aeruginosa (PCM 499); assay type: cell-based; conditions: broth microdilution, Mueller-Hinton broth, approximately 10^5 CFU/mL, 37°C, 24 h, absorbance 590 nm, at least triplicate
Description: as §4, §1, §2, §3

[8] = tested on: Staphylococcus aureus (PCM 2054); assay type: cell-based; conditions: broth microdilution, Mueller-Hinton broth, approximately 10^5 CFU/mL, 37°C, 24 h, absorbance 590 nm, at least triplicate
Description: as §4, §1, §2, §3

[9] = tested on: Staphylococcus epidermidis (PCM 2118); assay type: cell-based; conditions: broth microdilution, Mueller-Hinton broth, approximately 10^5 CFU/mL, 37°C, 24 h, absorbance 590 nm, at least triplicate
Description: as §4, §1, §2, §3

HaCaT keratinocytes = assay: Cell migration assay (in vitro scratch test); assay type: cell-based, human; conditions: 25 μg/mL, 24 h; for Effect on keratinocyte migration (scratch test), in words: serum-free DMEM, Mitomycin C 5 μg/mL, vs. control without peptide, three independent experiments
Description: Fibroblasts and keratinocytes were seeded (5x10^5 cells/well) in 6-well plates. When desired monolayer confluence was reached, cells were starved for 24 hours in serum-free DMEM. The monolayer was scratched then with 200μL-pipette tip. The floating cells and cell debris were removed by double washing in PBS, further replaced with a fresh serum-free medium. Wounded monolayers were incubated for the next 24 h in the presence of tested peptides used at concentration of 25 μg/mL and 5 μg/mL of Mitomycin C (Sigma Aldrich) to prevent proliferation. At the end of the experiment medium was removed and the cells were fixed with 3.7% PFA for 5 min, stained for the next 30 min with 0.05% crystal violet solution, washed several times with distilled water and the plates were left inverted for a couple of minutes to drain. The wounded areas were then photographed by means of Zeiss Observer D1 microscope equipped with camera AxioCam and analyzed with AxioVision software (Carl Zeiss, Germany). Migration activity of the cells treated with the tested peptides were expressed as the percentage of the wounded area with respect to the control probe (cell cultures without any of the peptide), assumed as 100%.
An in vitro scratch test was performed to investigate the effect of the analyzed compounds on keratinocytes and fibroblasts migration. Evaluation was based on the efficiency of the invasion of the monolayer cells to the prewounded area within 24 h after stimulation with the appropriate compound added at concetration of 25μg/mL.
Fig 2 Effect of the peptides on HaCaT keratinocytes and fibroblasts cell migration in the in vitro scratch test. HaCaT cells and fibroblasts were grown in 6-well plates until the 100% confluence was reached, then cells were starved for the next 12 hours in DMEM without 10% FCS and scratched once vertically with a 200μL pipette tip. After being washed two times with sterile PBS, a fresh portion of DMEM medium was added and cells were treated with the tested peptides applied at their optimal doses (25 μg/mL). Migration was analyzed after 24 hours by means of Zeiss Observer D1 microscope, wounding areas were analyzed with AxioVision software and expressed as the percentage of the wound width in comparison to the control sample (cells incubated in DMEM without FCS). Control+ FCS corresponds to the sample with cells incubated in the medium containing 10% FCS and was treated as the additional positive control. Data represent the mean ± SD of three independent experiments. *P < 0.05, **P < 0.01, ***P < 0.001 vs. control.

[10] = tested on: human primary dermal fibroblasts; assay: Cell migration assay (in vitro scratch test); assay type: cell-based; conditions: 25 μg/mL, 24 h, serum-free DMEM, Mitomycin C 5 μg/mL, vs. control without peptide, three independent experiments
Description: Biopsies of healthy human skin were obtained aseptically from three donors (47–69 years old) undergoing circumcision after obtaining their written informed consent. All the procedures were approved by the Ethics Committee of Medical University of Gdansk (NKEBN/483/2011. Issued: 2011-12-19). The samples were washed several times with sterile PBS (Sigma-Aldrich, Germany) containing antibiotic (200 U/mL penicillin and 200 μg/mL streptomycin), after which, the subcutaneous tissue was cut off with a sharp blade. The resulting sheets were cut into small fragments, washed two times with sterile PBS and treated with 6 U/mL dispase II (BD, USA) overnight at 4°C to separate epidermis and dermis. The dermis was then digested with 1.0 mg/mL collagenase type I (from Clostridium histolyticum Sigma-Aldrich, Germany) for 2 hours at 37°C to isolate fibroblasts. Cells were used between the 2nd and 4th passage in all experiments.
Fibroblasts and keratinocytes were seeded (5x10^5 cells/well) in 6-well plates. When desired monolayer confluence was reached, cells were starved for 24 hours in serum-free DMEM. The monolayer was scratched then with 200μL-pipette tip. […] The wounded areas were then photographed by means of Zeiss Observer D1 microscope equipped with camera AxioCam and analyzed with AxioVision software (Carl Zeiss, Germany). Migration activity of the cells treated with the tested peptides were expressed as the percentage of the wounded area with respect to the control probe (cell cultures without any of the peptide), assumed as 100%.
An in vitro scratch test was performed to investigate the effect of the analyzed compounds on keratinocytes and fibroblasts migration. […]
Fig 2 Effect of the peptides on HaCaT keratinocytes and fibroblasts cell migration in the in vitro scratch test. […] Migration was analyzed after 24 hours by means of Zeiss Observer D1 microscope, wounding areas were analyzed with AxioVision software and expressed as the percentage of the wound width in comparison to the control sample (cells incubated in DMEM without FCS). […]

[11] = Circular dichroism, alpha-helical content; assay type: physicochemical; conditions: CD, mean residue ellipticity at 222 nm (Eq 1), peptide 0.4 mg/ml in 30 mM SDS, room temperature
Description: Circullar dichroism spectra of analyzed compounds were recorded on a Jasco J-815 spectropolarimeter using a quartz cell of 1 mm path length between 195–260 nm at room temperature. Peptides at concentration of 0.4 mg/ml were dissolved in water or 30 mM SDS solution. SDS micelle system was used as the simplified model of negatively charged lipid membrane. On the basis of the obtained results the alpha-helical content was determined from the mean residue ellipticities at 222 nm according to Eq 1: %Helix=([θ]obs/([θ]helixx(1−2.57/l))x100, (1) where [θ] obs is the experimentally observed mean-residue ellipticity at 222 nm, [θ]helix is the theoretical ellipticity of peptide of infinite length with a 100% helix population, taken as -39 500 deg·cm^2/dmol, and l is the number of peptide bonds.
Circular dichroism method was applied to obtain a basic information about the secondary structure of the synthesized compounds (with the exception of CAR, CAR3, DAL, CTEN2) in two chemical environments, water and 30 mM SDS. As expected, all the tested compounds in water adopted a random-coil structure, while in the presence of 30 mM SDS most of them formed α-helices with characteristic negative minima around 208 and 220 nm. […] The examples of CD spectra for selected peptides could be seen in supporting information (Figure A in S1 File). On the basis of the experimentally obtained values of the mean residue ellipticities of peptides at 222 nm their alpha-helical content was calculated according to the Eq 1 (Table 1).

[12] = tested on: immortalized human HaCaT keratinocytes; assay: Cell proliferation assay (MTT); assay type: cell-based; conditions: 72 h, serum-free DMEM, whole range 1–50 μg/mL, vs. control without peptide, triplicate
Description: In our study two kind of cells were used: immortalized human HaCaT keratinocytes (DKFZ Heidelberg, Germany) and primary dermal fibroblasts obtained from 3 healthy donors. Both types of the used cell lines were grown in Dulbecco's modified Eagle's medium (DMEM) (Sigma–Aldrich, Germany), that contained […] of glucose, […] of L-glutamine, sodium pyruvate and sodium bicarbonate. Additionally, medium was supplemented with 10% of FCS (fetal calf serum, Sigma-Aldrich, Germany), 100 U/mL of penicillin and 100 μg/mL streptomycin (Sigma-Aldrich, Germany). The cells were grown in culture dishes (BD, USA) under standard conditions in a humidified atmosphere with 5% CO2 at 37°C and medium was changed every 2 days.
The fibroblasts and keratinocytes were seeded at density of 4500 and 6000 cells per well, respectively, into 96-well plates suspended in a medium supplemented with 10% of FCS. After 24 h the media were exchanged with serum- and antibiotic- free DMEM and tested peptides dissolved in PBS were added yielding final concentration ranging from 1 to 50 μg/mL. Cells were incubated for the next 24 hours, when the medium was exchanged again and fresh portion of peptides (used at the same concentrations as previously) was added. Incubation was continued for the next 48 hours (the overall time of cell exposition to peptide was 72 h). At the end of the experiment cells were treated with 20 μL of MTT (5 mg/mL in PBS). After 3 h at 37°C under 5% CO2 medium was discarded and replaced by 6mM HCl in isopropanol. After 15 min when the purple crystals of formazan were fully solubilized, absorbance was read at 570 nm with a plate reader. The optical density reflects the level of cell viability as MTT is converted in purple formazan product only in the presence of viable mitochondria of the living cells.
Fig 1 Pro-proliferative activity of the tested peptides towards human keratinocytes (A) and fibroblasts (B). Cells were incubated for 72 hours in serum-free DMEM medium in the presence of peptides applied at concentrations of 1,10, 25 and 50 μg/mL, respectively. The data represents results of MTT assay expressed as the percentage of the cell viability in comparison to their control sample (cells incubated in serum-free DMEM without tested peptides), additional positive control corresponds to the cells incubated in the presence of 10% FCS. All experiments were performed independently in triplicate. *P < 0.05, **P < 0.01, ***P < 0.001 vs. control.
In order to evaluate a long-term effect of peptides, experiments were carried out for 72 hours. Before addition of the tested compounds, the cell medium was exchanged for the fresh one not containing any serum or antibiotic.

Compound	MIC B. cereus (B. cereus) [µg/mL]	MIC B. subtilis (B. subtilis) [µg/mL]	MIC C. albicans [1] [µg/mL]	MIC C.glabrata [2] [µg/mL]	MIC C.krusei [3] [µg/mL]	MIC C. parapsilosis [4] [µg/mL]	MIC C.tropicalis [5] [µg/mL]	MIC E.coli [6] [µg/mL]	MIC P. aeruginosa [7] [µg/mL]	MIC S.aureus [8] [µg/mL]	MIC S. epidermidis [9] [µg/mL]	Effect on keratinocyte migration (scratch test), in words (HaCaT keratinocytes)	Keratinocyte migration higher than that of the native peptides KSLW and DAL (HaCaT keratinocytes; scratch test)	Effect on fibroblast migration (scratch test), in words [10]	α-helicity [11] [%]	Effect on HaCaT cell viability/proliferation (MTT), in words [12]
CC(C)C[C@H](NC(=O)[C@H](Cc1ccccc1)NC(=O)CNC(=O)[C@@H](C)NC(=O)[C@@H](N)Cc1ccc(O)cc1)C(=O)N[C@@H](CCCNC(=N)N)C(=O)NCCOCCOCC(=O)N[C@@H](CCCCN)C(=O)N[C@@H](CCCCN)C(=O)N[C@H](C(=O)N[C@H](C(=O)N[C@@H](Cc1ccccc1)C(=O)N[C@@H](Cc1c[nH]c2ccccc12)C(=O)N[C@H](C(=O)N[C@@H](CCCCN)C(=O)N[C@@H](Cc1ccccc1)C(=O)N[C@@H](CCCCN)C(N)=O)C(C)C)C(C)C)C(C)C [DAL-PEG-KSLW] (HELM PEPTIDE1{Y.[dA].G.F.L.R.[O=C(COCCOCCN[*:1])[*:2]].K.K.V.V.F.W.V.K.F.K.[am]}$$$$V2.0; N-terminus assumed)	125 (≈ 57.9 µM)	15.6 (≈ 7.22 µM)	31.3	125	31.3	62.5	7.8	7.8 (≈ 3.61 µM)	62.5 (≈ 28.9 µM)	62.5 (≈ 28.9 µM)	3.9 (≈ 1.8 µM)	best results	about 15%	highest migration rate	22	–
carnosine [reference compound]	–	–	–	–	–	–	–	–	–	–	–	best results	–	–	–	non-toxic
